Measured values reported in PMC10367051, “Comprehensive Mechanistic View of the Hydrolysis of Oxadiazole-Based Inhibitors by Histone Deacetylase 6 (HDAC6)” (ACS Chemical Biology, 2023).

Legend:
Format in all cases: biochemical
HDAC11 = biological target: T1, HDAC11 (Homo sapiens, UniProt Q96DB2); assay: HDAC11 inhibition assay (internally quenched peptide); details: purified human protein; internally quenched TNFα-derived peptide substrate; 15 min preincubation
T1 construct: made in house; host or cells: HEK293/T17
T1 sequence (Q96DB2 1-347): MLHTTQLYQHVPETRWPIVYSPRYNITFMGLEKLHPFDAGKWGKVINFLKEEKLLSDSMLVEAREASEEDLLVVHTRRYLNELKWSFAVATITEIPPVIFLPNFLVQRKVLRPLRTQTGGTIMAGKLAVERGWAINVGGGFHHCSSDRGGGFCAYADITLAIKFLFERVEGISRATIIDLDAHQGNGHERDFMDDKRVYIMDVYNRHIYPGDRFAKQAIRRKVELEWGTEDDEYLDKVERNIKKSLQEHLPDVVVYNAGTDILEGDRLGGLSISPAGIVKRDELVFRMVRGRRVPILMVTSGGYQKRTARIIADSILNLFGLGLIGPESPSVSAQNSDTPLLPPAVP
Description: (§1) Large-scale expression of recombinant human HDACs was carried out as described previously.[32],[37] Briefly, HEK293/T17 cells were transiently transfected with expression pMM222 plasmids comprising N-terminally tagged (TwinStrep-FLAG-HALO tag; Figure S1) HDAC genes using linear poly(ethyleneimine) (PEI, Polysciences Inc.). Cells were harvested three days post-transfection, and cell pellets were resuspended in the lysis buffer (100 mM Tris-HCl, 10 mM NaCl, 5 mM KCl, 2 mM MgCl2, and 10% glycerol at pH 8.0). Cells were disrupted by sonication, cell lysates were cleared by centrifugation, and soluble fusion proteins were first purified by Streptactin affinity chromatography (IBA). For all HDACs but HDACs 1, 10, and 11, the N-terminal tag was cleaved off overnight by the addition of TEV protease (10:1 HDAC/TEV ratio). Size-exclusion chromatography on a Superose 6 column (GE Healthcare Bio-Sciences; running buffer 30 mM HEPES, 140 mM NaCl, 10 mM KCl, 3% glycerol, and 0.25 mM TCEP) was used as the final purification step for all HDAC constructs.
(§2) Optimized fluorometric assays were used to determine inhibition constants of studied compounds against individual HDAC isoforms as described previously.[32] Briefly, reactions were performed in the activity buffer comprising 50 mM HEPES, 140 mM NaCl, and 10 mM KCl at pH 7.4 supplemented with 1 mg mL^–1 bovine serum albumin (BSA), 1 mM tris(2-carboxyethyl)phosphine (TCEP), 10 μM substrates, and optimized concentrations of HDACs. The Ac-Gly-Ala-[Lys-Ac]-7-amino-methylcoumarylamide (AMC) substrate was used to profile HDACs 1, 2, 3, and 6; Boc-[Lys-TFA]-7-amino-methylcoumarylamide was used for HDACs 4, 5, 7, 8, and 9 (both substrates: Bachem); fluorescein-labeled N8-acetylspermidine was used for HDAC10;[32] and an internally quenched TNFα-derived peptide derivative was used for HDAC11.[39] Deacetylation reactions were monitored either by high-performance liquid chromatography (HPLC) (HDAC10) or by quantification of released AMC (λex/λem = 365/440 nm) using a CLARIOstar plate reader (BMG Labtech GmbH).

zHDAC6 (Y745F) = biological target: T2, zHDAC6 (Y745F) (Danio rerio, UniProt F8W4B7, Y745F); assay: Inhibition assay, zebrafish HDAC6 catalytic DD2 domain, Y745F mutant
T2 construct: Danio rerio HDAC6 (amino acids 440–798; zHDAC6); His (N, cleaved yes); MBP (N, cleaved yes); made in house; host or cells: RIPL Escherichia coli
T2 sequence (F8W4B7 440-798 Y745F): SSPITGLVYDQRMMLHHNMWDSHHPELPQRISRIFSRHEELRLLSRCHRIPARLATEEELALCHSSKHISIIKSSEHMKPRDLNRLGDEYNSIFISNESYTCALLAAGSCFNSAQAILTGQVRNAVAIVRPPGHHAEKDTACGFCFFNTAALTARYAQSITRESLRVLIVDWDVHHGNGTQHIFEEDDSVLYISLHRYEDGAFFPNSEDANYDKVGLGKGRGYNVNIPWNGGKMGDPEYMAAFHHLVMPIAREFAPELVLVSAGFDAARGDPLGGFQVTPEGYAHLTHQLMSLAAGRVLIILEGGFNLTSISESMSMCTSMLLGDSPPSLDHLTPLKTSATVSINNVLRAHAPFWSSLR
Description: The second catalytic domain of Danio rerio HDAC6 (amino acids 440–798; zHDAC6) was expressed in RIPL Escherichia coli as described previously using the pEC566-zHDAC6 expression vector.[16],[38] Briefly, bacteria were incubated at 37 °C with shaking (250 rpm) until the optical density reached an OD600 = 0.5. Then, the culture was cooled to 18 °C for 1 h, and recombinant protein expression was induced by the addition of 75 μM isopropyl β-D-1-thiogalactopyranoside together with 200 μM ZnSO4. The culture was grown at 18 °C for an additional 18 h and harvested by centrifugation at 5500g for 15 min. The cell pellet was resuspended in the lysis buffer (50 mM phosphate, 300 mM NaCl, 10% glycerol, and 20 mM imidazole at pH 8; 5 mL g^–1 bacterial pellet) and lysed by three passages through EmulsiFlex (Avestin). Cell lysates were centrifuged (15,000g at 4 °C for 20 min), and the fusion protein in the supernatant was purified via Ni-NTA chromatography. Fractions containing the His-MBP-HDAC6 fusion were concentrated to 2 mg mL^–1 and cleaved overnight by the addition of TEV protease (zHDAC6/TEV 1:20 ratio). The cleaved tag and the TEV protease were sequentially removed using amylose (New England Biolabs) and HisTrap columns (Cytiva), and zHDAC6 was further purified by size-exclusion chromatography on a HiLoad Superdex 75 pg column (GE Healthcare Bio-Sciences). Fractions containing zHDAC6 were pooled, concentrated to 10 mg mL^–1, flash-frozen in liquid nitrogen, and stored at −80 °C. The purity of protein preparations was monitored by SDS-PAGE (Figure S2).
The zHDAC6 mutants (Y745F and H574A) were constructed using the Quick-change site-directed mutagenesis protocol with the pEC566-zHDAC6 expression plasmid as a template. Both mutants were expressed and purified as described above for wild-type zHDAC6 (Figure S2).
as §2

HDAC5 = biological target: T3, HDAC5 (Homo sapiens, UniProt Q9UQL6); assay: Fluorometric HDAC inhibition assay, HDAC5; details: purified human protein; Boc-[Lys-TFA]-AMC substrate 10 μM; 15 min preincubation
T3 construct: TwinStrep-FLAG-HALO (N, cleaved yes); made in house; host or cells: HEK293/T17
Description: as §1, §2

HDAC3 = biological target: T4, HDAC3 (Homo sapiens, UniProt O15379); assay: Fluorometric HDAC inhibition assay, HDAC3; details: purified human protein; Ac-Gly-Ala-[Lys-Ac]-AMC substrate 10 μM; 15 min preincubation
T4 construct: TwinStrep-FLAG-HALO (N, cleaved yes); made in house; host or cells: HEK293/T17
Description: as §1, §2

HDAC2 = biological target: T5, HDAC2 (Homo sapiens, UniProt Q92769); assay: Fluorometric HDAC inhibition assay, HDAC2; details: purified human protein; Ac-Gly-Ala-[Lys-Ac]-AMC substrate 10 μM; 15 min preincubation
T5 construct: TwinStrep-FLAG-HALO (N, cleaved yes); made in house; host or cells: HEK293/T17
Description: as §1, §2

T3 sequence (Q9UQL6 whole entry): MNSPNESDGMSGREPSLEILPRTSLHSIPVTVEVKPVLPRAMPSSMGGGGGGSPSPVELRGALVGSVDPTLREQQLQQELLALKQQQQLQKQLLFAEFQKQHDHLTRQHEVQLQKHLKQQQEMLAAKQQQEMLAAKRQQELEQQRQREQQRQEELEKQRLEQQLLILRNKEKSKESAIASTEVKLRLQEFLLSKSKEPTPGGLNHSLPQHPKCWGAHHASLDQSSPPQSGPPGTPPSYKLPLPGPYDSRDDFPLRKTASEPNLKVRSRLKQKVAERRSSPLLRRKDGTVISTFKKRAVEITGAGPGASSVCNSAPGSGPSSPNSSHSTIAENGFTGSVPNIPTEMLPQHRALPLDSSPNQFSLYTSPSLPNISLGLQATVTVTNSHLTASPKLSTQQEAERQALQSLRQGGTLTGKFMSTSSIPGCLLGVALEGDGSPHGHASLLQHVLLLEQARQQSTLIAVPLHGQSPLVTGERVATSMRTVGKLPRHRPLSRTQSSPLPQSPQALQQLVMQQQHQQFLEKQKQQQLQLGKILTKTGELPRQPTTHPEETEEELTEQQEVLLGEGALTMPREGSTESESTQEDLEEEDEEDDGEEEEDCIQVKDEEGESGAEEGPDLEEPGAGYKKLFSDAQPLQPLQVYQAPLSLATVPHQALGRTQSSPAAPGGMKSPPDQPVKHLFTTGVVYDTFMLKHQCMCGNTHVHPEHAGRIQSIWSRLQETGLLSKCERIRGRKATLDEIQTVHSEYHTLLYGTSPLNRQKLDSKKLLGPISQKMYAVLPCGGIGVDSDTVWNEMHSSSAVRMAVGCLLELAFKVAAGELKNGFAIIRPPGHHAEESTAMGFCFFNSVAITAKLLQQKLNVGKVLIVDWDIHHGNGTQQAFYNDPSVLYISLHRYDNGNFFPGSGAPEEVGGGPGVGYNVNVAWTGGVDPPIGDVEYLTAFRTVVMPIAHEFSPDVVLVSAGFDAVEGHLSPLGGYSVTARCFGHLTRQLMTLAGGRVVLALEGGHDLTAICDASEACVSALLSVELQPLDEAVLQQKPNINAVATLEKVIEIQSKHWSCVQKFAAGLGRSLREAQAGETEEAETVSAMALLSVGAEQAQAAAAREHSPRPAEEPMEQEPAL
T5 sequence (Q92769 whole entry): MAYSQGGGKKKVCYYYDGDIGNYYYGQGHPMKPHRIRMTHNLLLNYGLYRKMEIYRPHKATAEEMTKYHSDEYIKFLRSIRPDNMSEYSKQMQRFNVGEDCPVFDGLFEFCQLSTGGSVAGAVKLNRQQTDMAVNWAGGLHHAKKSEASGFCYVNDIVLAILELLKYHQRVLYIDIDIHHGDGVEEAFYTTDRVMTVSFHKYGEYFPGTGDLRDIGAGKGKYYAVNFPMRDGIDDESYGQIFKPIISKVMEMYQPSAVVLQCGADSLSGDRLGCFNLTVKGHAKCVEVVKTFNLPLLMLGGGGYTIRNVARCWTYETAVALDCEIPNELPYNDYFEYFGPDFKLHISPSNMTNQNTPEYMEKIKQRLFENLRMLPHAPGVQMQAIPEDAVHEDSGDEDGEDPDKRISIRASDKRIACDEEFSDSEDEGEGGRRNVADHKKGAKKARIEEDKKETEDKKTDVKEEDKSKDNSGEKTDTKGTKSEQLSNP
T4 sequence (O15379 whole entry): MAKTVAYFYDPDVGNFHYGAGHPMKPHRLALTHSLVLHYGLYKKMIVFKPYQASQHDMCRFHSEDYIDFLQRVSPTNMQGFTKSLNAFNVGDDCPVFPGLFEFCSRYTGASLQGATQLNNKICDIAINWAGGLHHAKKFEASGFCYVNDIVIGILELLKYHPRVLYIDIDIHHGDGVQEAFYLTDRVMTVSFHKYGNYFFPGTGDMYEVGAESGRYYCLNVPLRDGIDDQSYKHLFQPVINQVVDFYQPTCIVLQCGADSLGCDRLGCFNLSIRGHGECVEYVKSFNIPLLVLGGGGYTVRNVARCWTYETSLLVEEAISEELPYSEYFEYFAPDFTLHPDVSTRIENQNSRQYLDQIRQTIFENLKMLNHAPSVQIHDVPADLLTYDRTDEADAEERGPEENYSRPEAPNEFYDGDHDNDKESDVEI
T4 sequence (Q9Y618 389-480 partner limits assumed): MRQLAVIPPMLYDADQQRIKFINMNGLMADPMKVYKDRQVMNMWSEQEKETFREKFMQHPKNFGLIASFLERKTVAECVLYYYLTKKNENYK

| IC50 (HDAC11) | IC50 (zHDAC6 (Y745F)) | IC50 (HDAC5) | IC50 (HDAC3) | IC50 (HDAC2) | Compound |
| --- | --- | --- | --- | --- | --- |
| > 20 µM | > 50 µM | > 20 µM | > 20 µM | > 20 µM | CS(=O)(=O)N(Cc1ccc(C(=O)NN)cn1)c1cccc(Cl)c1 [compound 4] |
| > 20 µM | 0.311 ± 0.15 µM | > 20 µM | > 20 µM | 17.4 µM | CS(=O)(=O)N(Cc1ccc(-c2nnc(C(F)(F)F)o2)cn1)c1cccc(Cl)c1 [compound 7] |

Second part, the compound before the results:

| Compound | IC50 (HDAC11) | IC50 (zHDAC6 (Y745F)) | IC50 (HDAC5) | IC50 (HDAC3) | IC50 (HDAC2) |
| --- | --- | --- | --- | --- | --- |
| CS(=O)(=O)N(Cc1ccc(C(=O)NNC(=O)C(F)(F)F)cn1)c1cccc(Cl)c1 [compound 5] |  | > 20 µM |  |  | > 20 µM |
| CS(=O)(=O)N(Cc1ccc(C(=O)NNC(=O)C(F)F)cn1)c1cccc(Cl)c1 [compound 6] |  | > 50 µM |  |  |  |
| CS(=O)(=O)N(Cc1ccc(-c2nnc(C(F)F)o2)cn1)c1cccc(Cl)c1 [compound 8] | > 20 µM | 0.075 ± 0.026 µM | > 20 µM | > 20 µM | > 20 µM |
